pKi: −log10 of the molar value. Like-named read-outs stand apart in the source and are kept apart here.
Columns and labels:
[1] = Plasma pharmacokinetic parameters following intravenous (IV) or oral (PO) administration in rats; type: in vivo, Sprague-Dawley rats; settings: rat; for Vd: read-out: Vss obs; for AUC / bioavailability: oral; for Total clearance as % liver blood flow: IV; for Plasma concentrations post 8 hr: IV 0.5 mg/kg and PO 2.5 mg/kg; for F: PO 2.5 mg/kg vs IV 0.5 mg/kg
Method in brief: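 Fasted male Sprague-Dawley rats (230-250 g, n=2/group), dosed 0.5 mg/kg IV (jugular) or 2.5 mg/kg PO gavage in water. Plasma sampled 2–1440 min, analyzed by LC-MS/MS; non-compartmental analysis with nominal doses/times gave AUC, Cmax, Tmax, CL, Vss, MRTlast, F.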

[2] = target: T1, A1 receptor (Homo sapiens, UniProt P30542); assay: Radioligand receptor binding assay, A1 receptor; settings: cell membranes overexpressing A1 receptor, read-out: Potency Ki A1
T1 construct: purchased
T1 sequence (P30542 1-326): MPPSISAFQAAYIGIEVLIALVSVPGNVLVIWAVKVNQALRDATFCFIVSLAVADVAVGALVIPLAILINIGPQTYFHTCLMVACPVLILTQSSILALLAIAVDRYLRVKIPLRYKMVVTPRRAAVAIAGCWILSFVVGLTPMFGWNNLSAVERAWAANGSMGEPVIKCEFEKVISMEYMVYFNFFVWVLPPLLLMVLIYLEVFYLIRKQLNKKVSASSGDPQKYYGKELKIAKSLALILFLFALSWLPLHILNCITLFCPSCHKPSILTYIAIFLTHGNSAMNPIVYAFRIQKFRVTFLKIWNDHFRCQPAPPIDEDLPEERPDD
Method in brief: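 Membranes from cell lines overexpressing human A2A, A1 or A3 receptors were incubated 60 min at room temperature with the receptor-appropriate [3H] tracer. After filtration and washing in 50 mM Tris HCl pH 7.5, bound label was counted by scintillation. IC50 came from nonlinear regression and Ki from the Cheng-Prusoff equation.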

[3] = male, Sprague-Dawley, plasma, intravenous, 0.5 mg/kg, Table 2 summary of Example 27, values marked 1 are the average of experiments
[4] = male, Sprague-Dawley, plasma, iv, 0.5 mg/kg, IV 0.5 mg/kg, injectable water
[5] = male, Sprague-Dawley, plasma, 2.5 mg/kg, Table 2 summary of Example 27, values marked 1 are the average of experiments
[6] = male, Sprague-Dawley, plasma, po, 2.5 mg/kg, PO 2.5 mg/kg via gavage, injectable water
[7] = male, Sprague-Dawley, plasma, po, 2.5 mg/kg, PO 2.5 mg/kg via gavage, injectable water, read-out: Cmax
[8] = male, Sprague-Dawley, plasma, po, 2.5 mg/kg, PO 2.5 mg/kg via gavage, injectable water, read-out: Tmax
[9] = IV 0.5 mg/kg, injectable water, listed as Compound 4 (#2), 0.5 mg/kg
[10] = PO 2.5 mg/kg via gavage, injectable water, listed as Compound 4 (#2), 2.5 mg/kg
[11] = IV 0.5 mg/kg, injectable water, listed as Compound 1 (#1), 0.5 mg/kg
[12] = IV 0.5 mg/kg, injectable water, listed as Compound 1 (#2), 0.5 mg/kg
[13] = PO 2.5 mg/kg via gavage, injectable water, listed as Compound 1 (#1), 2.5 mg/kg
[14] = PO 2.5 mg/kg via gavage, injectable water, listed as Compound 1 (#2), 2.5 mg/kg

## COCCOc1cnc(N2CCN(CCN(C)c3cc4nc(-c5ncco5)nn4c(N)n3)CC2)c(F)c1 [Compound 4, N^7-(2-{4-[3-fluoro-5-(2-methoxyethoxy)pyridin-2-yl]piperazin-1-yl}ethyl)-N^7-methyl-2-(1,3-oxazol-2-yl)[1,2,4]triazolo[1,5-c]pyrimidine-5,7-diamine]
[1]; [3]
  clearance: 34 mL/min/kg
[1]; [4]
  AUC(0-inf): 251 ng·h/mL
  AUC(0-t): 249 ng·h/mL
  MRT last: 53.4 min
  clearance: 26.8 to 33.6 mL/min/kg
  Vd: 1.93 L/kg
[1]; [5]
  AUC: 898 ng·h/mL
  bioavailability: 78%
[1]; [6]
  AUC(0-inf): 978 ng·h/mL
  AUC(0-t): 898 ng·h/mL
  MRT last: 153 min
[1]; [7]
  Cmax: 231 ng/mL
[1]; [8]
  Tmax: 30 to 45 min
[1]
  Total clearance as % liver blood flow: 45-56 % liver blood flow
  Plasma concentrations post 8 hr: below the limit of quantitation
[1]; IV 0.5 mg/kg, injectable water, listed as Compound 4 (#1), 0.5 mg/kg
  CL: 33.6 mL/min/kg
[1]; [9]
  AUCinf: 312 ng·h/mL
  AUClast: 310 ng·h/mL
  CL: 26.8 mL/min/kg
  MRTlast: 54.8 min
[1]; PO 2.5 mg/kg via gavage, injectable water, listed as Compound 4 (#1), 2.5 mg/kg
  Tmax: 45 min
[1]; [10]
  AUCinf: 707 ng·h/mL
  AUClast: 662 ng·h/mL
  Cmax: 172 ng/mL
  Tmax: 30 min
[1]; listed as Compound 4 (#1)
  F: 77.8%
[1]; listed as Compound 4 (#2)
  F: 45.4%
[2]
  pKi: 4.85

## COCCOc1ccc(N2CCN(CCN(C)c3cc4nc(-c5ncco5)nn4c(N)n3)CC2)cc1 [Compound 1, N^7-(2-{4-[4-(2-methoxyethoxy)phenyl]piperazin-1-yl}ethyl)-N^7-methyl-2-(1,3-oxazol-2-yl)[1,2,4]triazolo[1,5-c]pyrimidine-5,7-diamine]
[1]; [3]
  clearance: 31 mL/min/kg
[1]; [4]
  AUC(0-inf): 340 ng·h/mL
  AUC(0-t): 335 ng·h/mL
  MRT last: 84.6 to 87 min
  clearance: 24.6 to 36.1 mL/min/kg
  Vd: 2.17 to 3.44 L/kg
[1]; male, Sprague-Dawley, plasma, iv, 0.5 mg/kg, IV 0.5 mg/kg, injectable water, read-out: Cmax
  Cmax: 311 ng/mL
[1]; male, Sprague-Dawley, plasma, iv, 0.5 mg/kg, IV 0.5 mg/kg, injectable water, read-out: Tmax
  Tmax: 2 min
[1]; [5]
  AUC: 969 ng·h/mL
  bioavailability: 71%
[1]; [6]
  AUC(0-inf): 1280 ng·h/mL
  AUC(0-t): 1220 ng·h/mL
[1]; [7]
  Cmax: 242 to 367 ng/mL
[1]; [8]
  Tmax: 45 to 60 min
[1]
  Total clearance as % liver blood flow: 40-60 % liver blood flow
  Plasma concentrations post 8 hr: below the limit of quantitation
[1]; [11]
  AUCinf: 233 ng·h/mL
  AUClast: 228 ng·h/mL
  CL: 36.1 mL/min/kg
  Cmax: 207 ng/mL
  MRTlast: 84.6 min
  Vss obs: 3.44 L/kg
[1]; [12]
  CL: 24.6 mL/min/kg
  MRTlast: 87 min
  Vss obs: 2.17 L/kg
[1]; [13]
  AUCinf: 777 ng·h/mL
  AUClast: 718 ng·h/mL
  Cmax: 242 ng/mL
  Tmax: 45 min
[1]; [14]
  Cmax: 367 ng/mL
  Tmax: 60 min
[1]; listed as Compound 1 (#1)
  F: 66.8%
[1]; listed as Compound 1 (#2)
  F: 75.5%
[2]
  pKi: 4.30
